Patent publication US9675592B2, “Methods and compositions for bacteria infections” (priority 2013, dated 2017)
Read-outs that look alike come from different tables or passages of the source.

Assays:
[1] = tested on: test strain 923 pPvra-lux; test: Secondary screen / synergy confirmation of Top 40, relative growth with oxacillin; format: cell-based, Staphylococcus aureus; conditions: Top 40 library, compound at maximum non-GI conc
Description: In the secondary screen each microtiter plate contained either cells in TSB alone (16 replicates), cells with oxacillin (2 μg/mL, 31 replicates), or cells with test compound and oxacillin (2 μg/mL, 49 wells). Each compound was assayed in four separate biological replicates.
Synergy Confirmation of “Top 40”. […]

[2] = tested on: vraSR promoter (Pvra-lux reporter in strain 923); format: cell-based, Staphylococcus aureus; conditions: for RL Ox avg: Top 40 library, with oxacillin, compound at maximum non-GI conc; for vraSR repressing synergist: overall class from syn and rep
Description: In the secondary screen each microtiter plate contained either cells in TSB alone (16 replicates), cells with oxacillin (2 μg/mL, 31 replicates), or cells with test compound and oxacillin (2 μg/mL, 49 wells). Each compound was assayed in four separate biological replicates. […]

[3] = tested on: test strain (923 pPvra-lux); test: Growth inhibition by compound alone (maximum non-growth-inhibitory concentration); format: cell-based, Staphylococcus aureus; conditions: compound alone; maximum concentration where it did NOT inhibit growth
multiple strains of MRSA = test: MICs (minimal inhibitory concentrations) vs multiple strains of MRSA; format: cell-based, Staphylococcus aureus
[4] = tested on: test strain 923 pPvra-lux (USA300 MRSA); test: Primary screen, relative growth in presence of oxacillin; conditions: compound 10 μM with oxacillin 2 μg/mL, absorbance 24 h, <0.50 = dead cells = hit
[5] = tested on: vraSR promoter (Pvra-lux reporter in strain 923); test: Primary screen, relative luminescence (vraSR expression)
[6] = primary screen, compound 10 μM with oxacillin 2 μg/mL, <0.50 = vraSR repressed = hit
[7] = isolate 923, SCCmec IV, ST 8, compound at 4 mg/L
[8] = isolate 1176, SCCmec II, ST 231, compound at 4 mg/L
[9] = isolate 2169, SCCmec IV, ST 72, compound at 4 mg/L
[10] = isolate 8004-01, SCCmec III, ST 239, compound at 4 mg/L
[11] = isolate 8010-01, SCCmec IV, ST 8, compound at 4 mg/L
[12] = isolate 8227-01, SCCmec IV, ST 87, compound at 4 mg/L
[13] = isolate 11095, SCCmec II, ST 105, compound at 4 mg/L
[14] = isolate 13113, SCCmec II, ST 5, compound at 4 mg/L
[15] = isolate 13354, SCCmec IV, ST 5, compound at 4 mg/L
[16] = isolate 14315, SCCmec IV, ST 1, compound at 4 mg/L
[17] = isolate Q2461, SCCmec VT, ST 59, compound at 4 mg/L
[18] = isolate 923, SCCmec IV, ST 8, compound at 2 mg/L
[19] = isolate 1176, SCCmec II, ST 231, compound at 2 mg/L
[20] = isolate 2169, SCCmec IV, ST 72, compound at 2 mg/L
[21] = isolate 8004-01, SCCmec III, ST 239, compound at 2 mg/L
[22] = isolate 8010-01, SCCmec IV, ST 8, compound at 2 mg/L
[23] = isolate 8227-01, SCCmec IV, ST 87, compound at 2 mg/L
[24] = isolate 11095, SCCmec II, ST 105, compound at 2 mg/L
[25] = isolate 13113, SCCmec II, ST 5, compound at 2 mg/L
[26] = isolate 13354, SCCmec IV, ST 5, compound at 2 mg/L
[27] = isolate 14315, SCCmec IV, ST 1, compound at 2 mg/L
[28] = isolate Q2461, SCCmec VT, ST 59, compound at 2 mg/L

Row | Compound | RG Ox avg [1] | RL Ox avg [2] | vraSR repressing synergist [2] | maximum non-GI conc [3] | RG avg (relative growth) [4] | RL avg (relative luminescence) [5, 6] | other results
1 | Oc1ccc(C2(c3cccc(Br)c3)CCCCC2)cc1 [F0020-1560] | 0.68 | 0.17 | 2. possible | 40 µg/mL | 0.02 | −0.01 | Ox MIC in presence of compound (multiple strains of MRSA; isolate 923, SCCmec IV, ST 8, compound at 1 mg/L): 1 µg/mL; Ox MIC in presence of compound (multiple strains of MRSA; isolate 1176, SCCmec II, ST 231, compound at 1 mg/L): <0.5 µg/mL; Ox MIC in presence of compound (multiple strains of MRSA; isolate 2169, SCCmec IV, ST 72, compound at 1 mg/L): 1 µg/mL; Ox MIC in presence of compound (multiple strains of MRSA; isolate 8004-01, SCCmec III, ST 239, compound at 1 mg/L): <4 µg/mL; Ox MIC in presence of compound (multiple strains of MRSA; isolate 8010-01, SCCmec IV, ST 8, compound at 1 mg/L): 1 µg/mL; Ox MIC in presence of compound (multiple strains of MRSA; isolate 8227-01, SCCmec IV, ST 87, compound at 1 mg/L): 0.25 µg/mL; Ox MIC in presence of compound (multiple strains of MRSA; isolate 11095, SCCmec II, ST 105, compound at 1 mg/L): <2 µg/mL; Ox MIC in presence of compound (multiple strains of MRSA; isolate 13113, SCCmec II, ST 5, compound at 1 mg/L): <0.13 µg/mL; Ox MIC in presence of compound (multiple strains of MRSA; isolate 13354, SCCmec IV, ST 5, compound at 1 mg/L): <0.13 µg/mL; Ox MIC in presence of compound (multiple strains of MRSA; isolate 14315, SCCmec IV, ST 1, compound at 1 mg/L): <0.5 µg/mL; Ox MIC in presence of compound (multiple strains of MRSA; isolate Q2461, SCCmec VT, ST 59, compound at 1 mg/L): 4 µg/mL
2 | Cc1ccc(S(=O)(=O)Nc2ccccc2C(=O)Nc2nc3c(C)ccc(C)c3s2)cc1 [F1813-0712] | 0.71 | 0.20 | 2. possible | 400 µg/mL | −0.01 |  | Ox MIC in presence of compound (multiple strains of MRSA; [7]): 4 µg/mL; Ox MIC in presence of compound (multiple strains of MRSA; [8]): 16 µg/mL; Ox MIC in presence of compound (multiple strains of MRSA; [9]): 8 µg/mL; Ox MIC in presence of compound (multiple strains of MRSA; [10]): 512 µg/mL; Ox MIC in presence of compound (multiple strains of MRSA; [11]): 16 µg/mL; Ox MIC in presence of compound (multiple strains of MRSA; [12]): 0.5 µg/mL; Ox MIC in presence of compound (multiple strains of MRSA; [13]): 256 µg/mL; Ox MIC in presence of compound (multiple strains of MRSA; [14]): 16 µg/mL; Ox MIC in presence of compound (multiple strains of MRSA; [15]): 8 µg/mL; Ox MIC in presence of compound (multiple strains of MRSA; [16]): 16 µg/mL; Ox MIC in presence of compound (multiple strains of MRSA; [17]): 16 µg/mL; RL avg (relative luminescence) [5]: 0.00
3 | CC(C)(C)c1csc(NC(=O)c2cccc(NS(=O)(=O)c3ccc(F)cc3)c2)n1 [F2619-0556] | 0.01 | 0.28 | 1. confirmed | 400 µg/mL | 0.25 | 0.52 | Ox MIC in presence of compound (multiple strains of MRSA; [7]): <0.25 µg/mL; Ox MIC in presence of compound (multiple strains of MRSA; [8]): <0.5 µg/mL; Ox MIC in presence of compound (multiple strains of MRSA; [9]): <0.25 µg/mL; Ox MIC in presence of compound (multiple strains of MRSA; [10]): <4 µg/mL; Ox MIC in presence of compound (multiple strains of MRSA; [11]): <0.25 µg/mL; Ox MIC in presence of compound (multiple strains of MRSA; [12]): <0.06 µg/mL; Ox MIC in presence of compound (multiple strains of MRSA; [13]): 128 µg/mL; Ox MIC in presence of compound (multiple strains of MRSA; [14]): <0.13 µg/mL; Ox MIC in presence of compound (multiple strains of MRSA; [15]): <0.13 µg/mL; Ox MIC in presence of compound (multiple strains of MRSA; [16]): <0.5 µg/mL; Ox MIC in presence of compound (multiple strains of MRSA; [17]): 1 µg/mL
4 | O=C(Nc1ccc(Cl)c(Cl)c1)Nc1ccc2cn[nH]c2c1 [F5882-3050] | 0.02 | 0.07 | 1. confirmed | 400 µg/mL | 0.39 | 0.25 | Ox MIC in presence of compound (multiple strains of MRSA; [18]): <0.25 µg/mL; Ox MIC in presence of compound (multiple strains of MRSA; [19]): <0.5 µg/mL; Ox MIC in presence of compound (multiple strains of MRSA; [20]): <0.25 µg/mL; Ox MIC in presence of compound (multiple strains of MRSA; [21]): 32 µg/mL; Ox MIC in presence of compound (multiple strains of MRSA; [22]): <0.25 µg/mL; Ox MIC in presence of compound (multiple strains of MRSA; [23]): <0.06 µg/mL; Ox MIC in presence of compound (multiple strains of MRSA; [24]): <2 µg/mL; Ox MIC in presence of compound (multiple strains of MRSA; [25]): <0.13 µg/mL; Ox MIC in presence of compound (multiple strains of MRSA; [26]): <0.13 µg/mL; Ox MIC in presence of compound (multiple strains of MRSA; [27]): <0.5 µg/mL; Ox MIC in presence of compound (multiple strains of MRSA; [28]): 0.5 µg/mL
5 | Cc1ccc(S(=O)(=O)Nc2ccccc2C(=O)Nc2nc3c(Cl)ccc(Cl)c3s2)cc1 [F1813-0710] | 0.69 | 0.20 | 2. possible | 400 µg/mL | −0.03 | 0.01 | 
6 | O=C(Nc1ccc(Cl)c(Cl)c1)N(Cc1ccsc1)Cc1ccco1 [F5854-2599] | 1.01 | 0.54 | 3. no effect | 40 µg/mL | 0.01 | −0.06 | 
7 | CC(=O)Nc1ccc(Nc2cc(C(C)C)nc3c(-c4ccccc4)cnn23)cc1 [F3348-0533] | 0.02 | 0.10 | 1. confirmed | 400 µg/mL | 0.02 | 0.01 | 
8 | O=C(Nc1ccc(Cl)c(C(F)(F)F)c1)N1CCN(c2cc(-n3cccn3)ncn2)CC1 [F5562-0130] | 1.03 | 0.57 | 3. no effect | 40 µg/mL | 0.02 | −0.08 | 
9 | Cn1cccc1C(CNC(=O)Nc1ccc(Cl)c(Cl)c1)N1CCOCC1 (stereo not shown) [F5833-1551] | 0.99 | 0.56 | 3. no effect | 40 µg/mL | 0.01 | −0.03 | 
10 | Cc1ccc(C)c2sc(NC(=O)c3cccs3)nc12 [F0600-1305] | 0.94 | 0.15 | 3. no effect | 400 µg/mL | 0.36 | 0.22 | 
11 | O=C(Nc1cccc(C(F)(F)F)c1)N1CCN(c2ccc3nncn3n2)CC1 [F5123-0084] | 1.08 | 0.67 | 3. no effect | 40 µg/mL | 0.02 | −0.08 | 
12 | Fc1cccc(Nc2nc(Nc3ccc(F)c(Cl)c3)nc(N3CCOCC3)n2)c1 [F2703-0396] | 0.01 | 0.34 | 1. confirmed | 400 µg/mL | 0.06 | 0.19 | Ox MIC in presence of compound (multiple strains of MRSA; [18]): <0.25 µg/mL; Ox MIC in presence of compound (multiple strains of MRSA; [19]): <0.5 µg/mL; Ox MIC in presence of compound (multiple strains of MRSA; [20]): <0.25 µg/mL; Ox MIC in presence of compound (multiple strains of MRSA; [21]): 64 µg/mL; Ox MIC in presence of compound (multiple strains of MRSA; [22]): <0.25 µg/mL; Ox MIC in presence of compound (multiple strains of MRSA; [23]): <0.06 µg/mL; Ox MIC in presence of compound (multiple strains of MRSA; [24]): <2 µg/mL; Ox MIC in presence of compound (multiple strains of MRSA; [25]): <0.13 µg/mL; Ox MIC in presence of compound (multiple strains of MRSA; [26]): <0.13 µg/mL; Ox MIC in presence of compound (multiple strains of MRSA; [27]): <0.5 µg/mL; Ox MIC in presence of compound (multiple strains of MRSA; [28]): <0.13 µg/mL
13 | O=C(Nc1nc(-c2ccccn2)cs1)c1ccc(Br)s1 [F0447-0273] | 0.39 | 0.08 | 1. confirmed | 40 µg/mL | −0.08 | −0.09 | 
14 | O=S(=O)(Nc1cccc(-c2nc3ccccc3s2)c1)c1ccc(Cl)s1 [F2399-0063] | −0.01 | 0.04 | 1. confirmed | 400 µg/mL | 0.28 | 0.12 | 
15 | O=C(Nc1nnc(-c2ccccc2Cl)o1)c1ccc2ccccc2c1 [F1374-0082] | 0.67 | 0.08 | 2. possible | 40 µg/mL | 0.08 | 0.35 | 
16 | Cc1ccc(-c2nnc(NC(=O)c3ccc(S(=O)(=O)N4CCc5ccccc5C4)cc3)o2)c(C)c1 [F2518-0213] | 1.14 | 0.33 | 3. no effect | 4 µg/mL | 0.01 | −0.01 | 
